According to US11135320B2, “Radioligands for pretargeted pet imaging and methods of their therapeutic use” (priority 2015, dated 2021):
Values joined by “and” are separate entries in the source; they are usually repeats but may differ in a detail not shown here. Equal entries are not always repeated. Where two headings read alike, the source gives them in different places.

Columns and labels:
[1] = tested on: subcutaneous SW1222 xenografts (A33 antigen-expressing human colorectal carcinoma); conditions: 24 h accumulation interval, Zeglis 2013, cited from earlier work
[2] = Dosimetry calculations (OLINDA) for huA33-based PET imaging strategies; parameters: species or system human (70-kg Standard Man model, from mouse biodistribution); conditions: pretargeting
Experimental: The radiation dosimetry of ^64Cu-Tz-SarAr was performed to ensure the selective delivery of radioisotopes to malignant tissues at radiation doses below the doses of traditional radioimmunoconjugates. To this end, dosimetry calculations were performed using the biodistribution data collected and the OLINDA computer program to determine the mean organ absorbed doses (rad/mCi) and effective dose (rem/mCi) for each strategy (Table 23). The total effective dose of the ^64Cu-Tz-SarAr pretargeting strategy with a 24 h interval period was 0.041 rem/mCi, a slight reduction compared to the 0.046 rem/mCi effective dose created by ^64Cu-Tz-NOTA. This difference was due to the significant reduction in the mean organ absorbed dose to the large intestine. Moreover, the total effective dose of the ^64Cu-Tz-SarAr pretargeting strategy was inversely proportional to the duration of the accumulation interval. For example, the effective dose decreased from 0.041 rem/mCi with a 24 h interval to 0.038 rem/mCi with a 48 h interval to 0.034 with a 120 h interval.
Mouse biodistribution data were expressed as normal-organ mean standard uptake values (SUVs) versus time post-administration. In first order, that SUVs were independent of body mass and thus the same among species, the mean SUV in mouse organ i, SUVOrgan i|Mouse, was converted to the fraction of the injected dose in each human organ I, FIDOrgan I|Human, using the following formula:
[formula] and the organ and total-body masses of the 70-kg Standard Man anatomic model. […] The cumulated activity, or residence time, in human organ i, μCi, in μCi h/μCi, was then calculated by analytically integrating the time-activity function in organ i, replacing the biological clearance constant, (λbλj, for each component j of the fitted exponential function with the corresponding effective clearance constant, (λeλj=(λbλj+λp, where λp is the physical decay constant of the radionuclide. The resulting organ residence times were entered into the OLINDA computer program to yield the mean organ absorbed doses and effective dose in rad/mCi and rem/mCi, respectively. Statistical Analysis

## O=C([O-])CN1CCN(CC(=O)[O-])CC(Cc2ccc(NC(=O)CCCC(=O)NCc3ccc(-c4nncnn4)cc3)cc2)N(CC(=O)[O-])CC1.[64Cu+2] (centres unmarked) [^64Cu-Tz-NOTA]
[1]; 1 h p.i.
  Blood activity concentration: 3.47 ± 0.63 % ID/g
  Bone activity concentration: 0.3 ± 0.16 % ID/g
  Heart activity concentration: 1.09 ± 0.18 % ID/g
  Kidney activity concentration: 1.3 ± 0.15 % ID/g
  Large Intestine activity concentration: 13.29±3.15 % ID/g
  Liver activity concentration: 2.19 ± 0.25 % ID/g
  Lung activity concentration: 1.58 ± 0.46 % ID/g
  Muscle activity concentration: 0.22 ± 0.04 % ID/g
  Small Intestine activity concentration: 0.03 ± 0.04 % ID/g
  Spleen activity concentration: 0.63 ± 0.07 % ID/g
  Stomach activity concentration: 0.45 ± 0.08 % ID/g
  Tumor activity concentration: 4.07 ± 0.25 % ID/g
  Tumor/Blood activity concentration ratio: 1.17 ± 0.22
  Tumor/Bone activity concentration ratio: 13.72 ± 7.63
  Tumor/Heart activity concentration ratio: 3.75 ± 0.65
  Tumor/Kidney activity concentration ratio: 3.14 ± 0.41
  Tumor/Large Intestine activity concentration ratio: 0.31 ± 0.08
  Tumor/Liver activity concentration ratio: 1.86 ± 0.24
  Tumor/Lung activity concentration ratio: 2.57 ± 0.76
  Tumor/Muscle activity concentration ratio: 18.42 ± 3.71
  Tumor/Small Intestine activity concentration ratio: 119.52 ± 148.82
  Tumor/Spleen activity concentration ratio: 6.46 ± 0.81
  Tumor/Stomach activity concentration ratio: 8.96 ± 1.7
[1]; 4 h p.i.
  Blood activity concentration: 2.61 ± 0.83 % ID/g
  Bone activity concentration: 0.27 ± 0.24 % ID/g
  Heart activity concentration: 0.91 ± 0.27 % ID/g
  Kidney activity concentration: 0.95 ± 0.31 % ID/g
  Large Intestine activity concentration: 9.43 ± 4.22 % ID/g
  Liver activity concentration: 1.26 ± 0.3 % ID/g
  Lung activity concentration: 1.6 ± 0.39 % ID/g
  Muscle activity concentration: 0.14 ± 0.03 % ID/g
  Small Intestine activity concentration: 0.38 ± 0.08 % ID/g
  Spleen activity concentration: 0.51 ± 0.22 % ID/g
  Stomach activity concentration: 0.25 ± 0.12 % ID/g
  Tumor activity concentration: 4.09±0.61 % ID/g
  Tumor/Blood activity concentration ratio: 1.57 ± 0.55
  Tumor/Bone activity concentration ratio: 14.95 ± 13.2
  Tumor/Heart activity concentration ratio: 4.51 ± 1.49
  Tumor/Kidney activity concentration ratio: 4.32 ± 1.56
  Tumor/Large Intestine activity concentration ratio: 0.43 ± 0.2
  Tumor/Liver activity concentration ratio: 3.23 ± 0.9
  Tumor/Lung activity concentration ratio: 2.55 ± 0.73
  Tumor/Muscle activity concentration ratio: 29.38 ± 8.5
  Tumor/Small Intestine activity concentration ratio: 10.83 ± 2.8
  Tumor/Spleen activity concentration ratio: 7.97 ± 3.57
  Tumor/Stomach activity concentration ratio: 16.17 ± 8.21
[1]; 12 h p.i.
  Blood activity concentration: 2.31 ± 0.4 % ID/g
  Bone activity concentration: 0.35 ± 0.11 % ID/g
  Heart activity concentration: 0.92 ± 0.14 % ID/g
  Kidney activity concentration: 0.91 ± 0.29 % ID/g
  Large Intestine activity concentration: 2.92 ± 1.34 % ID/g
  Liver activity concentration: 0.93 ± 0.23 % ID/g
  Lung activity concentration: 1.09 ± 0.38 % ID/g
  Muscle activity concentration: 0.16 ± 0.02 % ID/g
  Small Intestine activity concentration: 0.77 ± 0.51 % ID/g
  Spleen activity concentration: 0.59 ± 0.25 % ID/g
  Stomach activity concentration: 0.52 ± 0.64 % ID/g
  Tumor activity concentration: 4.20 ± 0.84 % ID/g
  Tumor/Bone activity concentration ratio: 11.98 ± 4.51
  Tumor/Heart activity concentration ratio: 4.58 ± 1.16
  Tumor/Kidney activity concentration ratio: 4.6 ± 1.71
  Tumor/Large Intestine activity concentration ratio: 1.44±0.72
  Tumor/Liver activity concentration ratio: 4.53 ± 1.45
  Tumor/Lung activity concentration ratio: 3.87 ± 1.55
  Tumor/Small Intestine activity concentration ratio: 5.46 ± 3.81
  Tumor/Spleen activity concentration ratio: 7.1 ± 3.34
  Tumor/Stomach activity concentration ratio: 8.12 ± 10.12
[1]; 24 h p.i.
  Blood activity concentration: 2.07 ± 0.49 % ID/g
  Bone activity concentration: 0.29 ± 0.07 % ID/g
  Heart activity concentration: 0.82 ± 0.21 % ID/g
  Kidney activity concentration: 0.7 ± 0.19 % ID/g
  Large Intestine activity concentration: 1.67 ± 0.88 % ID/g
  Liver activity concentration: 1.07 ± 0.15 % ID/g
  Lung activity concentration: 1.03 ± 0.31 % ID/g
  Muscle activity concentration: 0.15 ± 0.02 % ID/g
  Small Intestine activity concentration: 0.35 ± 0.04 % ID/g
  Spleen activity concentration: 0.45 ± 0.11 % ID/g
  Stomach activity concentration: 0.16 ± 0.03 % ID/g
  Tumor activity concentration: 3.94 ± 0.92 % ID/g
  Tumor/Blood activity concentration ratio: 1.9 ± 0.63
  Tumor/Bone activity concentration ratio: 13.43 ± 4.5
  Tumor/Heart activity concentration ratio: 4.82 ± 1.69
  Tumor/Kidney activity concentration ratio: 5.61 ± 1.98
  Tumor/Large Intestine activity concentration ratio: 2.36 ± 1.37
  Tumor/Liver activity concentration ratio: 3.69 ± 1.01
  Tumor/Lung activity concentration ratio: 3.83 ± 1.45
  Tumor/Muscle activity concentration ratio: 26.98 ± 7.41
  Tumor/Small Intestine activity concentration ratio: 11.4 ± 2.91
  Tumor/Spleen activity concentration ratio: 8.79 ± 2.98
  Tumor/Stomach activity concentration ratio: 24.29 ± 6.89

## NC12CNCCNCC(NCc3ccc(CNC(=O)CCCC(=O)NCc4ccc(-c5nncnn5)cc4)cc3)(CNCCNC1)CNCCNC2.[64Cu+2] [^64Cu-Tz-SarAr]
[2]; 24 h interval
  Brain absorbed dose: 0.0361 rad/mCi
  Breasts absorbed dose: 0.0323 rad/mCi
  Effective Dose: 0.041 rem/mCi and 0.0414 rem/mCi
  Heart Wall absorbed dose: 0.0427 rad/mCi
  Kidneys absorbed dose: 0.0661 rad/mCi
  Lower Lg. Int. Wall absorbed dose: 0.0482 rad/mCi
  Osteogenic Cells absorbed dose: 0.0893 rad/mCi
  Ovaries absorbed dose: 0.0401 rad/mCi
  Pancreas absorbed dose: 0.0395 rad/mCi
  Skin absorbed dose: 0.0297 rad/mCi
  Small Intestine absorbed dose: 0.0418 rad/mCi
  Spleen absorbed dose: 0.0370 rad/mCi
  Stomach Wall absorbed dose: 0.0552 rad/mCi
  Testes absorbed dose: 0.0345 rad/mCi
  Thymus absorbed dose: 0.0349 rad/mCi
  Upper Lg. Int. Wall absorbed dose: 0.0409 rad/mCi
  Uterus absorbed dose: 0.0410 rad/mCi
[2]; 48 h interval
  Effective Dose: 0.038 rem/mCi and 0.0377 rem/mCi
  Kidneys absorbed dose: 0.0539 rad/mCi
  Pancreas absorbed dose: 0.0364 rad/mCi
  Spleen absorbed dose: 0.0205 rad/mCi
  Stomach Wall absorbed dose: 0.0422 rad/mCi
  Uterus absorbed dose: 0.0383 rad/mCi
[2]; 120 h interval
  Effective Dose: 0.034 rem/mCi and 0.0341 rem/mCi
  Heart Wall absorbed dose: 0.0330 rad/mCi
  Kidneys absorbed dose: 0.0566 rad/mCi
  Lungs absorbed dose: 0.0216 rad/mCi
  Osteogenic Cells absorbed dose: 0.0720 rad/mCi
  Spleen absorbed dose: 0.0225 rad/mCi
